The values that follow come from patent publication US20250376461A1, “INDAZOLE DERIVATIVES FOR TREATING TRPM3-MEDIATED DISORDERS” (Katholieke Universiteit Leuven, priority 2022, published 2025).

One may read the IC50 as the concentration that inhibits the measured activity by half. Lower therefore signals greater potency in that assay.

In this experiment the target is T1, mouse TRPM3α2 (mTRPM3) ion channel (Mus musculus, UniProt J9SQF3).
T1 construct: expressed in transfected cells; host or cells: flip-in HEK293
T1 sequence (J9SQF3 1-1709 isoform J9SQF3-12): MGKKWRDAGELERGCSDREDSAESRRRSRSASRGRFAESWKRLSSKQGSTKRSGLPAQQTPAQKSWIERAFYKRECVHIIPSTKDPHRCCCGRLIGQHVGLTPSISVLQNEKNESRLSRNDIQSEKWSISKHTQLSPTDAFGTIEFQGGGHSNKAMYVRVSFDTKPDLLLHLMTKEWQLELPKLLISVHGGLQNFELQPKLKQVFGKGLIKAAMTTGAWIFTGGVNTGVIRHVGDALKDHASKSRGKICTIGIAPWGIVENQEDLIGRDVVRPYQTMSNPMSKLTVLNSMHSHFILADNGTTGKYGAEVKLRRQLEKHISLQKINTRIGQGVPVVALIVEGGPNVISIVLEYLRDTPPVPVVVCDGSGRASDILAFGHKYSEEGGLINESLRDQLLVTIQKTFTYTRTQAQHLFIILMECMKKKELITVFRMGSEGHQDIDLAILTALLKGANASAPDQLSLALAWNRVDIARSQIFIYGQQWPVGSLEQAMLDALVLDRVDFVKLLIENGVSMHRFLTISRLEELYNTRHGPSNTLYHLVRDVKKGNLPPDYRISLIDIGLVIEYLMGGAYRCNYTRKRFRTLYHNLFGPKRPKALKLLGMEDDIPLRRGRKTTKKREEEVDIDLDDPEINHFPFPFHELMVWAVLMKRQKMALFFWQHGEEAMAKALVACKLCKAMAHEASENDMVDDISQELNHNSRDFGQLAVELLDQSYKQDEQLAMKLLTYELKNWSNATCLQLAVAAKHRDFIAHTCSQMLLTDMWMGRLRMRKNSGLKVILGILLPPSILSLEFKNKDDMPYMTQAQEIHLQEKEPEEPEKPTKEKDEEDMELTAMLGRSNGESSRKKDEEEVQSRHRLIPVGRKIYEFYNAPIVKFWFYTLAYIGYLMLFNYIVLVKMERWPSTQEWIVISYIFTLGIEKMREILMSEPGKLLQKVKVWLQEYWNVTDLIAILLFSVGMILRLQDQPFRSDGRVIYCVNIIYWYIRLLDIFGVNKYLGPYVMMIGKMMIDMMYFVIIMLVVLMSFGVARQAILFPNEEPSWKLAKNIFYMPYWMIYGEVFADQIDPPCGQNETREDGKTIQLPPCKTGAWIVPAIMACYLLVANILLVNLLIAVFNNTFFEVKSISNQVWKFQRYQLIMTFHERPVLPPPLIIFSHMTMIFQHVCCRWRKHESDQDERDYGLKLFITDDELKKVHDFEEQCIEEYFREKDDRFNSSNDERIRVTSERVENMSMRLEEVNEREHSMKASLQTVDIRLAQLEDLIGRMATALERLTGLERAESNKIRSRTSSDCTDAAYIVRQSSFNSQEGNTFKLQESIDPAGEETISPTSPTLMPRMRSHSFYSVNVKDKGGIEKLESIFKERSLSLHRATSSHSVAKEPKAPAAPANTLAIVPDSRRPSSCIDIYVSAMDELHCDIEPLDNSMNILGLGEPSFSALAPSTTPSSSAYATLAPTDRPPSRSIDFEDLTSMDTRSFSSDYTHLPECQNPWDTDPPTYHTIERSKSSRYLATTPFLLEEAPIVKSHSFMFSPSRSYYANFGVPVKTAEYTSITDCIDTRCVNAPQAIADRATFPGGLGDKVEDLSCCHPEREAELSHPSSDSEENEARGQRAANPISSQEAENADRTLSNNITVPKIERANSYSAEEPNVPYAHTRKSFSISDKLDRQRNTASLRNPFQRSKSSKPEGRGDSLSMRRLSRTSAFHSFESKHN
The experiment is described as follows: TRPM3 ion channel driven Ca2+ uptake, Fluo-4 AM assay, mTRPM3alpha2 overexpressing flip-in HEK293 cells stimulated with pregnenolone sulfate (50 μM). The experiment is classed as cell-based. The following applies: mTRPM3 overexpressing HEK293 cells stimulated with pregnenolone sulfate (50 μM), activity ranges A, B, C. The essentials: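 Flip-in HEK293 cells overexpressing mTRPM3α2, loaded with Fluo-4 AM, added at ±2000 cells/well to plates holding compound plus 50 μM pregnenolone sulfate in Ca2+-containing Krebs buffer. Fluorescence (ex 485/em 535 nm) read immediately. Percent inhibition normalised between vehicle and positive-control inhibitor; IC50 derived.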
In turn, `Cn1nc2ccc(OCc3ccccn3)cc2c1C(=O)NC1(CO)CC1` [Cpd 104, N-[1-(hydroxymethyl)cyclopropyl]-2-methyl-5-[(pyridin-2-yl)methoxy]-2H-indazole-3-carboxamide] gave a half-maximal inhibitory concentration (IC50) of more than 20 µM. In the case of `Cc1ncc(COc2ccc3nn(C)c(C(=O)NC4(CO)COC4)c3c2)s1` [Cpd 105, N-[3-(hydroxymethyl)oxetan-3-yl]-2-methyl-5-[(2-methyl-1,3-thiazol-5-yl)methoxy]-2H-indazole-3-carboxamide], the 50% inhibitory concentration (IC50) lay in the range of 1 to 20 µM. On to `Cn1nc2ccc(OCc3ccccn3)cc2c1C(=O)NC1(CO)CCOCC1` [Cpd 106, N-[4-(hydroxymethyl)oxan-4-yl]-2-methyl-5-[(pyridin-2-yl)methoxy]-2H-indazole-3-carboxamide], for which the concentration for half-maximal inhibition (IC50) lay in the range of 1 to 20 µM. For `Cc1ncsc1COc1ccc2nn(C)c(C(=O)NC3(C(N)=O)CCOCC3)c2c1` [Cpd 107, N-(4-carbamoyloxan-4-yl)-2-methyl-5-[(4-methyl-1,3-thiazol-5-yl)methoxy]-2H-indazole-3-carboxamide] the value was 1 to 20 µM; for `Cc1ncc(COc2ccc3nn(C)c(C(=O)NC4(CO)CCC4)c3c2)s1` [Cpd 108, N-[1-(hydroxymethyl)cyclobutyl]-2-methyl-5-[(2-methyl-1,3-thiazol-5-yl)methoxy]-2H-indazole-3-carboxamide], 1 to 20 µM; for `Cc1ncsc1COc1ccc2nn(C)c(C(=O)NC3(CO)COC3)c2c1` [Cpd 109, N-[3-(hydroxymethyl)oxetan-3-yl]-2-methyl-5-[(4-methyl-1,3-thiazol-5-yl)methoxy]-2H-indazole-3-carboxamide], 1 to 20 µM. For `Cc1ncsc1COc1ccc2nn(C)c(C(=O)NC(C)(C)C(N)=O)c2c1` [Cpd 110, 2-methyl-2-({2-methyl-5-[(4-methyl-1,3-thiazol-5-yl)methoxy]-2H-indazol-3-yl}formamido)propanamide] the value was 1 to 20 µM; for `Cc1ncc(COc2ccc3nn(C)c(C(=O)NC4CCN(C)CC4)c3c2)s1` [Cpd 111, 2-methyl-5-[(2-methyl-1,3-thiazol-5-yl)methoxy]-N-(1-methylpiperidin-4-yl)-2H-indazole-3-carboxamide], more than 20 µM; for `Cc1ncsc1COc1ccc2nn(C)c(C(=O)NC3CCN(C)CC3)c2c1` [Cpd 112, 2-methyl-5-[(4-methyl-1,3-thiazol-5-yl)methoxy]-N-(1-methylpiperidin-4-yl)-2H-indazole-3-carboxamide], more than 20 µM.

In turn, `Cc1ncsc1COc1ccc2nn(C)c(C(=O)N[C@H](CO)C(N)=O)c2c1` [Cpd 113, (2R)-3-hydroxy-2-({2-methyl-5-[(4-methyl-1,3-thiazol-5-yl)methoxy]-2H-indazol-3-yl}formamido)propanamide] gave an IC50 of 1 to 20 µM. For the compound `Cc1ncc(COc2ccc3nn(C)c(C(=O)NC4(CO)CC4)c3c2)s1` [Cpd 114, N-[1-(hydroxymethyl)cyclopropyl]-2-methyl-5-[(2-methyl-1,3-thiazol-5-yl)methoxy]-2H-indazole-3-carboxamide], the IC50 is more than 20 µM. For `Cc1ncsc1COc1ccc2nn(C)c(C(=O)NC3CCOCC3)c2c1` [Cpd 115, 2-methyl-5-[(4-methyl-1,3-thiazol-5-yl)methoxy]-N-(oxan-4-yl)-2H-indazole-3-carboxamide] the value was 1 to 20 µM. `Cc1ncsc1COc1ccc2nn(C)c(C(=O)N[C@@H](CO)C(N)=O)c2c1` [Cpd 116, (2S)-3-hydroxy-2-({2-methyl-5-[(4-methyl-1,3-thiazol-5-yl)methoxy]-2H-indazol-3-yl}formamido)propanamide] registered a half-maximal inhibitory concentration (IC50) of less than 1 µM. For `Cc1ncc(COc2ccc3nn(C)c(C(=O)N[C@H](C)C(N)=O)c3c2)s1` [Cpd 117, (2R)-2-({2-methyl-5-[(2-methyl-1,3-thiazol-5-yl)methoxy]-2H-indazol-3-yl}formamido)propanamide] the value was more than 20 µM; for `Cc1ncsc1COc1ccc2nn(C)c(C(=O)N[C@H](C)C(N)=O)c2c1` [Cpd 118, (2R)-2-({2-methyl-5-[(4-methyl-1,3-thiazol-5-yl)methoxy]-2H-indazol-3-yl}formamido)propanamide], 1 to 20 µM.

Compound `Cc1ncc(COc2ccc3nn(C)c(C(=O)N[C@@H](C)C(N)=O)c3c2)s1` [Cpd 119, (2S)-2-({2-methyl-5-[(2-methyl-1,3-thiazol-5-yl)methoxy]-2H-indazol-3-yl}formamido)propanamide] had a half-inhibitory concentration (IC50) of 1 to 20 µM. To `Cc1ncc(COc2ccc3nn(C)c(C(=O)NC4CCOCC4)c3c2)s1` [Cpd 120, 2-methyl-5-[(2-methyl-1,3-thiazol-5-yl)methoxy]-N-(oxan-4-yl)-2H-indazole-3-carboxamide] belongs more than 20 µM; to `C[C@@H](NC(=O)c1c2cc(OCC3CC3)ccc2nn1C)C(N)=O` [Cpd 121, (2R)-2-{[5-(cyclopropylmethoxy)-2-methyl-2H-indazol-3-yl]formamido}propanamide], less than 1 µM; to `Cn1nc2ccc(OCc3cccnc3C(F)(F)F)cc2c1C(=O)O` [Cpd 122, 2-methyl-5-((2-(trifluoromethyl)pyridin-3-yl)methoxy)-2H-indazole-3-carboxylic acid], 1 to 20 µM.

Compound `Cn1nccc1COc1ccc2nn(C)c(C(=O)O)c2c1` [Cpd 123, 2-methyl-5-[(1-methyl-1H-pyrazol-5-yl)methoxy]-2H-indazole-3-carboxylic acid] gave an IC50 of more than 20 µM. In the case of `Cc1ncc(COc2ccc3nn(C)c(C(=O)NC4(CO)CCOCC4)c3c2)s1` [Cpd 124, N-[4-(hydroxymethyl)oxan-4-yl]-2-methyl-5-[(2-methyl-1,3-thiazol-5-yl)methoxy]-2H-indazole-3-carboxamide], the IC50 was more than 20 µM.

`Cc1ncc(COc2ccc3nn(C)c(C(=O)N[C@@H](CO)C(N)=O)c3c2)s1` [Cpd 126, (2S)-3-hydroxy-2-({2-methyl-5-[(2-methyl-1,3-thiazol-5-yl)methoxy]-2H-indazol-3-yl}formamido)propanamide] had a concentration for half-maximal inhibition (IC50) of 1 to 20 µM. For `Cn1nc2ccc(OCc3ccccn3)cc2c1C(=O)NC(C)(CO)CO` [Cpd 127, N-(1,3-dihydroxy-2-methylpropan-2-yl)-2-methyl-5-[(pyridin-2-yl)methoxy]-2H-indazole-3-carboxamide] the value was less than 1 µM; for `Cn1nc2ccc(OCC3CCC3)cc2c1C(=O)NC(C)(CO)CO` [Cpd 129, 5-(cyclobutylmethoxy)-N-(1,3-dihydroxy-2-methylpropan-2-yl)-2-methyl-2H-indazole-3-carboxamide], 1 to 20 µM. For `Cn1nc2ccc(OCC3CCC3)cc2c1C(=O)N[C@@H](CO)C(N)=O` [Cpd 130, (2S)-2-{[5-(cyclobutylmethoxy)-2-methyl-2H-indazol-3-yl]formamido}-3-hydroxypropanamide] the value was less than 1 µM; for `Cc1ncc(COc2ccc3nn(C)c(C(=O)NC(C)(CO)CO)c3c2)o1` [Cpd 131, N-(1,3-dihydroxy-2-methylpropan-2-yl)-2-methyl-5-[(2-methyl-1,3-oxazol-5-yl)methoxy]-2H-indazole-3-carboxamide], 1 to 20 µM.

The compound `Cn1nc2ccc(OCC3CC3)cc2c1C(=O)NCC1CC1` [Cpd 133, 5-(cyclopropylmethoxy)-N-(cyclopropylmethyl)-2-methyl-2H-indazole-3-carboxamide] yielded a concentration for half-maximal inhibition (IC50) of more than 20 µM. For `Cn1nc2ccc(OCC3CC3)cc2c1C(=O)NC(C)(C)C(N)=O` [Cpd 134, 2-{[5-(cyclopropylmethoxy)-2-methyl-2H-indazol-3-yl]formamido}-2-methylpropanamide] the value was 1 to 20 µM; for `Cn1nc2ccc(OCC3CC3)cc2c1C(=O)NC(C)(CO)CO` [Cpd 135, 5-(cyclopropylmethoxy)-N-(1,3-dihydroxy-2-methylpropan-2-yl)-2-methyl-2H-indazole-3-carboxamide], 1 to 20 µM; for `Cn1nc2ccc(OCC3CC3)cc2c1C(=O)N[C@H](CO)C(N)=O` [Cpd 136, (2R)-2-{[5-(cyclopropylmethoxy)-2-methyl-2H-indazol-3-yl]formamido}-3-hydroxypropanamide], 1 to 20 µM. For `Cn1nc2ccc(OCC3CC3)cc2c1C(=O)N[C@@H](CO)C(N)=O` [Cpd 137, (2S)-2-{[5-(cyclopropylmethoxy)-2-methyl-2H-indazol-3-yl]formamido}-3-hydroxypropanamide] the value was less than 1 µM; for `C[C@@H](O)[C@H](NC(=O)c1c2cc(OCC3CC3)ccc2nn1C)C(N)=O` [Cpd 138, (2S,3R)-2-{[5-(cyclopropylmethoxy)-2-methyl-2H-indazol-3-yl]formamido}-3-hydroxybutanamide], 1 to 20 µM; for `Cn1nc2ccc(OCC3CC3)cc2c1C(=O)NCCNS(C)(=O)=O` [Cpd 140, 5-(cyclopropylmethoxy)-N-(2-methanesulfonamidoethyl)-2-methyl-2H-indazole-3-carboxamide], more than 20 µM. For `Cc1ncc(COc2ccc3nn(C)c(C(=O)N[C@@H](CO)C(N)=O)c3c2)o1` [Cpd 141, (2S)-3-hydroxy-2-({2-methyl-5-[(2-methyl-1,3-oxazol-5-yl)methoxy]-2H-indazol-3-yl}formamido)propanamide] the value was less than 1 µM. `Cc1ncc(COc2ccc3nn(C)c(C(=O)N[C@H](C(N)=O)[C@@H](C)O)c3c2)o1` [Cpd 142, (2S,3R)-3-hydroxy-2-({2-methyl-5-[(2-methyl-1,3-oxazol-5-yl)methoxy]-2H-indazol-3-yl}formamido)butanamide] came in with an IC50 of 1 to 20 µM. For `Cn1nc2ccc(OCC3CCCC3)cc2c1C(=O)N[C@@H](CO)C(N)=O` [Cpd 143, (2S)-2-{[5-(cyclopentylmethoxy)-2-methyl-2H-indazol-3-yl]formamido}-3-hydroxypropanamide] the value was less than 1 µM; for `Cn1nc2ccc(OCC3CCCC3)cc2c1C(=O)NC(C)(CO)CO` [Cpd 144, 5-(cyclopentylmethoxy)-N-(1,3-dihydroxy-2-methylpropan-2-yl)-2-methyl-2H-indazole-3-carboxamide], more than 20 µM.
